Assay results: ChEMBL document CHEMBL3734726, “An abietane diterpene from Salvia cuspidata and some new derivatives are active against Trypanosoma cruzi” (Bioorg Med Chem Lett, 2015)
Converted amounts (≈) assume the structure as drawn. The source made the active and inactive calls. The calls are words filed in the database; no cut-off is given here.

How the values were obtained:
Trypanosoma cruzi [1] = experiment: Antitrypanosomal activity against epimastigote stage of Trypanosoma cruzi Dm28c assessed as parasite viability at 1 ug/ml after 24 hrs by eosin exclusion based hemocytometry; assay type: functional
Trypanosoma cruzi [2] = experiment: Antitrypanosomal activity against epimastigote stage of Trypanosoma cruzi Dm28c assessed as parasite viability at 2 ug/ml after 24 hrs by eosin exclusion based hemocytometry; assay type: functional
Trypanosoma cruzi [3] = experiment: Antitrypanosomal activity against epimastigote stage of Trypanosoma cruzi Dm28c assessed as parasite viability at 10 ug/ml after 24 hrs by eosin exclusion based hemocytometry; assay type: functional
[4] = Cytotoxicity against african green monkey Vero cells assessed as cell viability at 5 ug/ml after 24 hrs by eosin staining based microscopy; conditions: chlorocebus sabaeus, read-out: Activity
[5] = Cytotoxicity against african green monkey Vero cells assessed as cell viability at 10 ug/ml after 24 hrs by eosin staining based microscopy; conditions: chlorocebus sabaeus, read-out: Activity
Trypanosoma cruzi [6] = experiment: Antitrypanosomal activity against epimastigote stage of Trypanosoma cruzi Dm28c assessed as parasite viability at 5 ug/ml after 24 hrs by eosin exclusion based hemocytometry; assay type: functional
[7] = Cytotoxicity against african green monkey Vero cells assessed as cell viability at 2 ug/ml after 24 hrs by eosin staining based microscopy; conditions: chlorocebus sabaeus, read-out: Activity
[8] = Cytotoxicity against african green monkey Vero cells assessed as cell viability at 1 ug/ml after 24 hrs by eosin staining based microscopy; conditions: chlorocebus sabaeus, read-out: Activity
Trypanosoma cruzi [9] = experiment: Trypanocidal activity against epimastigote stage of Trypanosoma cruzi Dm28c assessed as induction of vacuolization at 5 ug/ml after 48 hrs by lead citrate staining based microscopy; assay type: functional, organism-based
Trypanosoma cruzi [10] = experiment: Antitrypanosomal activity against epimastigote stage of Trypanosoma cruzi Dm28c assessed as reduction in parasite viability at after 24 hrs by eosin exclusion based hemocytometry; assay type: functional, organism-based

| IC50 (Trypanosoma cruzi [10]) | Compound | Parasite viability (Trypanosoma cruzi [1]) | Parasite viability (Trypanosoma cruzi [2]) | Parasite viability (Trypanosoma cruzi [3]) | viability at 24 h, 5 ug/ml [4] | viability at 24 h, 10 ug/ml [5] | Parasite viability (Trypanosoma cruzi [6]) | viability at 24 h, 2 ug/ml [7] | viability at 24 h, 1 ug/ml [8] | Activity (Trypanosoma cruzi [9]) |
| --- | --- | --- | --- | --- | --- | --- | --- | --- | --- | --- |
| – | C=CCOC1=C(C(C)C)C(=O)C2=C(C1=O)[C@]13CCC[C@](C)(C(=O)OC1)[C@@H]3C=C2 | 85.5% | 65.5% | 18.3% | 99.1% | 85.5% | 29.5% | 99.6% | 99.8% | – |
| 5 µg/mL (≈ 14.6 µM) | CC(C)C1=C(O)C(=O)C2=C(C=C[C@@H]3[C@]24CCC[C@]3(C)C(=O)OC4)C1=O | 99.2% | 76.4% | 16.3% | 98.8% | 88.4% | 49.7% | 99.5% | 99.2% | Active |
| – | CC(=O)OC1=C(C(C)C)C(=O)C2=C(C1=O)[C@]13CCC[C@](C)(C(=O)OC1)[C@@H]3C=C2 | 99.2% | 89.5% | 16.3% | 99.2% | 92.4% | 39.5% | 99.7% | 99.8% | – |
| 2 µg/mL (≈ 4.82 µM) | CC(C)C1=C(O[Si](C)(C)C)C(=O)C2=C(C=C[C@@H]3[C@]24CCC[C@]3(C)C(=O)OC4)C1=O | 85.5% | 49.5% | 15.3% | 99.1% | 83.6% | 29.5% | 99.6% | 99.7% | – |
